For 36 molecules, EC50, AC50 and IC50 results are on record in ChEMBL document CHEMBL1201862, “PubChem BioAssay data set” (2004).

The structures appear in SMILES notation. Activity calls are given as the source filed them. Rule as the data show it, for most assays here: actives have a measured EC50 and inactives only a lower limit. Some results are limits rather than exact numbers.

The AC50 is the midpoint of the concentration-response curve, whichever way the signal moves. As usually defined, the IC50 is the concentration that inhibits the measured activity by half.

A short description of experiment [1]: cells. In kind it is functional, cell-based.
The nature of experiment [2]: cells. In kind it is functional, cell-based. The source holds these as a separate data set.
For experiment [3], the target named is T1, Heat shock factor protein 1 (Mus musculus, UniProt P38532).
T1 sequence (P38532 whole entry): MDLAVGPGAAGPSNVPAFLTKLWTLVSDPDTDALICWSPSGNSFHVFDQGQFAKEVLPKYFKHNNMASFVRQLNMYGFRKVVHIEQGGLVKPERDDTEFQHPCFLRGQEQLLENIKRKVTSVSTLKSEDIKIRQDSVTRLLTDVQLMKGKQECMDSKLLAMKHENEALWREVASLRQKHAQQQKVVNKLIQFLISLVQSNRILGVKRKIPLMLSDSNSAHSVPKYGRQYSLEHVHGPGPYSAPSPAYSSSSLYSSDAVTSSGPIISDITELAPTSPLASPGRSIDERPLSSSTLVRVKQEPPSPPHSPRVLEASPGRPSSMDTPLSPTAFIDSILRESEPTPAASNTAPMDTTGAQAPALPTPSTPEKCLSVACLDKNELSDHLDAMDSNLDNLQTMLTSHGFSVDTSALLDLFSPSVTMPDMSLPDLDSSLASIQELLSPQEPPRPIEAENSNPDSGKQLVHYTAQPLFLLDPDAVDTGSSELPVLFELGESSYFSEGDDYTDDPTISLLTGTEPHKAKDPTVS
The experiment in a line: enhancement of HSF1-driven luciferase signal – cell-based, NIH3T3, luminescence, dose retest, confirmation (AID 435004).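 Also: stress induced by proteasome inhibitor MG132 added 30 min after compound; luciferase reporter driven by HSF1 response element in NIH3T3 cells; actives raise luminescence as potentiators of the MG132 stress response.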 In kind it is functional.

Another experiment deals with INS1. The experiment in a line: INS-1E survival protection against cytokine death – cell-based, luminescence, retest, dose response (AID 449756).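 Also: cell death triggered by IL-1 beta plus TNF-alpha plus IFN-gamma mixture; protective hits raise ATP signal compared with cytokine alone wells.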 In kind it is functional. The following applies: Rattus norvegicus.
In experiment [4] the test system is Streptococcus sp. 'group A'. The experiment in a line: Streptococcus pyogenes SK(-)GAS viability under kanamycin – luminescence, BacTiterGlo, confirmation, counter-screen for streptokinase expression inhibitor project, dose response (AID 1900). In kind it is functional, organism-based. For orientation: A counterscreen serves to expose hits that act by an unwanted route or on another target.

The target of experiment [5] is Luciferin 4-monooxygenase (Photinus pyralis, UniProt P08659). The experiment in a line: inhibition of purified Photinus pyralis luciferase – biochemical, luminescence, dose response (AID 1891).
The nature of experiment [6]: Luminescence Cell-Based Dose Confirmation HTS to Identify Inhibitors of Platelet Dense Granule Release. [Related pubchem assays: 1663 (Primary HTS), 1678 (Summary of Project)]. In kind it is functional.
The test system of a further experiment is Streptococcus. The experiment in a line: GAS UMAA2166 growth inhibition – luminescence, BacTiterGlo, counter-screen for streptokinase expression inhibitor project, dose response (AID 1915).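 Also: potency for reduction of bacterial viability or growth.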 Format: functional, organism-based.
In the next experiment the target is T2, Protein skinhead-1 (Caenorhabditis elegans, UniProt P34707).
T2 sequence (P34707 whole entry): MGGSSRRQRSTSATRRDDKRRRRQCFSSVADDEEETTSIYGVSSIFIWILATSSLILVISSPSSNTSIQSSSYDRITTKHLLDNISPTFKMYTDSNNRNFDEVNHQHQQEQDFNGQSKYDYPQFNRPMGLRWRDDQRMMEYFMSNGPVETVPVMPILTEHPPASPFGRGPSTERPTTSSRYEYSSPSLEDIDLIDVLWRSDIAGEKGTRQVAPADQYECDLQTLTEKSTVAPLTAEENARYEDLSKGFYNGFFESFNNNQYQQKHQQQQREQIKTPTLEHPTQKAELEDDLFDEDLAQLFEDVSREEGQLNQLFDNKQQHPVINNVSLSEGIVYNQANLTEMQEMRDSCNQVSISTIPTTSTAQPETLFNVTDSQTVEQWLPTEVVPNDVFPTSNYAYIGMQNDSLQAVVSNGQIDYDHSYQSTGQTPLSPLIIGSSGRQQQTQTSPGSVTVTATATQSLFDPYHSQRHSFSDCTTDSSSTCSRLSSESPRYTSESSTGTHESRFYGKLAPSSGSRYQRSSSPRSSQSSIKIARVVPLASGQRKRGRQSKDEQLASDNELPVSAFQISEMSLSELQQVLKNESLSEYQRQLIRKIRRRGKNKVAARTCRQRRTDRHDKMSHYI
In kind it is functional.

Experiment [7] deals with T3, Corticotropin-releasing factor receptor 2/Corticotropin-releasing factor-binding protein (Homo sapiens, UniProt P24387+Q13324).
T3 sequence (Q13324 whole entry): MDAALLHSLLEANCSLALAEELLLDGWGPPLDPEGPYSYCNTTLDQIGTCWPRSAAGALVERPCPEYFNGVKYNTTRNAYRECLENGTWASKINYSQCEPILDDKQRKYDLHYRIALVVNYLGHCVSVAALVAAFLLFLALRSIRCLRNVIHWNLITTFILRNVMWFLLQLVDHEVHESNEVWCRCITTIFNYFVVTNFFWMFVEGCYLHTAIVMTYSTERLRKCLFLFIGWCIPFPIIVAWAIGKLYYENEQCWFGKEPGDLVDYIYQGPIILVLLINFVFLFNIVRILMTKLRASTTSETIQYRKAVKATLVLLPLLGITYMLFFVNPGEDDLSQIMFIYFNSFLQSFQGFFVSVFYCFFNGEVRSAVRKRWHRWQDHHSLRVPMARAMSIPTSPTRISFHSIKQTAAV
T3 sequence (P24387 whole entry): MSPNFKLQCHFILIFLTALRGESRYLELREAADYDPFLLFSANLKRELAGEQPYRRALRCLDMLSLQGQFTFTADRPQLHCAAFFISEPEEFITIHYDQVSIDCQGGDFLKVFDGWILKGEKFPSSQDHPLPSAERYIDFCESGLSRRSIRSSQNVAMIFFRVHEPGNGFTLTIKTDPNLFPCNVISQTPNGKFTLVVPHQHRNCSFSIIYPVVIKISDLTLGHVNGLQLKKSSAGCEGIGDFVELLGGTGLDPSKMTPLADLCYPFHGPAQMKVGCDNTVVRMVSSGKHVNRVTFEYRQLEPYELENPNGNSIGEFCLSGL
The experiment in a line: activators of CRF receptor 2 with binding protein – uHTS hits, confirmation (AID 602473). Format: functional. As to conditions: read-out: EC50_Mean.

For experiment [8], the target named is T4, Rac GTPase-activating protein 1 (Homo sapiens, UniProt Q9H0H5).
T4 sequence (Q9H0H5 whole entry): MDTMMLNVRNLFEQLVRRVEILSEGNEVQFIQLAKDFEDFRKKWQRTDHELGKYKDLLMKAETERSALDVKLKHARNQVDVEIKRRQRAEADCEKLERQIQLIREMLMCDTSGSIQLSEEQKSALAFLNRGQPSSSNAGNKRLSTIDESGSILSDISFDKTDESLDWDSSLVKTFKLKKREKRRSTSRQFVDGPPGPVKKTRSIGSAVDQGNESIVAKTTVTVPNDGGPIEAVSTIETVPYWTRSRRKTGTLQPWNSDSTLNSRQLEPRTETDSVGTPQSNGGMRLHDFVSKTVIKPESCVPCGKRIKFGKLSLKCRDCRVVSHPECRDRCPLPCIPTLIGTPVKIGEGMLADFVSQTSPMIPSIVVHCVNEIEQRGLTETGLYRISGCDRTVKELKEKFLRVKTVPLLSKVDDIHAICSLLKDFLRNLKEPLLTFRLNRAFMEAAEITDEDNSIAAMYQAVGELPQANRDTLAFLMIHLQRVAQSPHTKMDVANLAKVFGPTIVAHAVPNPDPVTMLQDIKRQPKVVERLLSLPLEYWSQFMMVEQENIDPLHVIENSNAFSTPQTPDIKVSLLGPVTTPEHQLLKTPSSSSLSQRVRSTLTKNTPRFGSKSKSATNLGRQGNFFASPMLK
The experiment in a line: blockers of MgcRacGAP-driven Rac1 GTP hydrolysis – biochemical, ADP Hunter fluorescence, primary and confirmatory, confirmation (AID 624330). Format: functional.

The nature of experiment [9]: cells. In kind it is functional.

Luciferin 4-monooxygenase, sequence (P08659 whole entry): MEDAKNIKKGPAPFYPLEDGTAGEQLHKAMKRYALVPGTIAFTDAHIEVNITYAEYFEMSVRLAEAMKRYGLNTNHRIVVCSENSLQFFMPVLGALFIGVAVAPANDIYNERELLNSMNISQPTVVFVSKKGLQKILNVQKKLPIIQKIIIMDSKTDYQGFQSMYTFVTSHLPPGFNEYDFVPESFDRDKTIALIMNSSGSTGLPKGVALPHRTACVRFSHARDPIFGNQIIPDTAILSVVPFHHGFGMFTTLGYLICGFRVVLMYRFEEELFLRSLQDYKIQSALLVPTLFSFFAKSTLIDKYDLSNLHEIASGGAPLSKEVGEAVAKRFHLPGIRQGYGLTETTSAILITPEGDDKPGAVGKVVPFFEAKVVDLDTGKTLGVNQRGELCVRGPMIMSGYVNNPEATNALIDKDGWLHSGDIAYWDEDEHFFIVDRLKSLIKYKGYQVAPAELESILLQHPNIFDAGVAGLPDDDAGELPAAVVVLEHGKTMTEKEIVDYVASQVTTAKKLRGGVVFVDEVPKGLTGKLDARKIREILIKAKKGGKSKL

For `O=C(Cn1nc(-c2ccccc2Cl)ccc1=O)Nc1ccccc1-c1ccccc1`, the EC50 in “cells [1]” was > 350 µM (not active); in “cells [2]”, > 350 µM (not active); in [3] it was 120 µM (active).
In the case of `COc1cc(NC(=O)CN2C(=O)c3ccccc3Sc3ccc(C(=O)N4CCOCC4)cc32)cc(OC)c1OC`, the EC50 in the experiment “cells [1]” and in the experiment “cells [2]” was > 350 µM (not active) throughout.
As for `C(/CCc1ccccc1)=N\Nc1nc2ccccc2[nH]1`, the results for the EC50 in “cells [1]” and in “cells [2]” were 92.2 µM (active) and 35.8 µM (active), respectively. Further, the AC50 with INS1 was 5.2 µM (active).
Take `O=C(c1ccc(F)cc1)c1cc2ccc(O)cc2oc1=O`: the EC50 in experiment [4] was 10.7 µM (active); in experiment [5], 0.731 µM (active); in [6], 0.457 µM (active); in the experiment on Streptococcus it was 15.7 µM (active).
With `COC(=O)c1cc2sccc2n1Cc1ccc(C)cc1`, the IC50 on Protein skinhead-1 is > 100 µM (inactive).
Consider `Cc1cc(/C=C(\C#N)C(=O)Nc2ccc(F)cc2)c(C)n1-c1ccc(N2CCOCC2)c([N+](=O)[O-])c1`, for which the IC50 on Protein skinhead-1 was > 100 µM (inactive).
Turning to `O=S(=O)(Nc1ccc(-c2ccc3nncn3n2)cc1)c1ccccc1Cl`, the EC50 in [5] is > 112 µM (not active); in experiment [6], 51.9 µM (active).
As to `Cc1ccc(-n2cc(CN3CCC(CO)(Cc4ccccc4)CC3)cn2)cc1`, the EC50 in the experiment “cells [1]” and in “cells [2]” was > 350 µM (not active) in each case.
Regarding `O=C(CCCCl)Oc1ccc2cc(-c3ccc4ccccc4n3)c(=O)oc2c1`, in experiment [7], the EC50 was 13.7 µM (active).
Regarding `CSc1nc2c(c(-c3ccc(O)cc3)c1C#N)CCC2`, the EC50 in experiment [5] and in [6] was > 112 µM (not active) in each case.
For `O=C(CSc1nnnn1C1CC1)N1CCN(c2ccc(O)cc2)CC1`, the IC50 in experiment [8] is 30.8 µM (active).
On the same count and under the same terms, as for `Oc1ccc(-c2cn3c(n2)SCC3)cc1`, the figure is 18.9 µM (active).
As to `CCn1nc(CCC(=O)O)c2ccccc2c1=O`, the IC50 on Protein skinhead-1 was > 100 µM (inactive).
With `CCSc1cc(C)nc2c(-c3ccccc3)cnn12`, the EC50 is > 350 µM (not active) in the experiment “cells [1]” and 23.1 µM (active) in “cells [2]”.
Take `CCN1CCN(C(S)=NCC2CCCO2)CC1` (stereo not drawn): the IC50 in experiment [8] was 186 µM (active).
Regarding `Cc1ccc(S(=O)(=O)Nc2cc(-c3ccc(Cl)cc3)nn2C)cc1`, the EC50 in “cells [1]” and in “cells [2]” was > 350 µM (not active) in each case.
In the case of `COc1ccc(/C=N/N=C(\N)c2nonc2N)cc1`, the EC50 is 3.82 µM (active) in experiment [5] and 2.67 µM (active) in [6].
On the same counts, the results for `Cc1ccccc1C(=O)NC(CC(C)C)C(=O)Nc1ccc(S(N)(=O)=O)cc1` (stereo not drawn) are > 112 µM (not active) and > 112 µM (not active).
`CCN(CC(=O)NCc1ccc(F)cc1)Cc1nc(O)c2ccc(Cl)cc2n1`: the IC50 on Protein skinhead-1 is > 100 µM (inactive).
`Cc1ccc(COC(=O)Cc2coc3cc(O)ccc23)cc1`: the IC50 in [8] is 30.1 µM (active).
For the molecule `O=c1c2ccccc2ncn1-c1ccc(Cl)cc1Cl`, at Protein skinhead-1, the IC50 was > 100 µM (inactive).
As for `Cc1occc1C(=O)N/N=C/c1c(O)ccc2ccccc12`, the EC50 in the experiment “cells [1]” is 69 µM (active); in “cells [2]” it was 9.8 µM (active). Moreover, the AC50 with INS1 was 1.25 µM (active).
In the case of `Cc1ccc(OCCCCNC(C)(C)C)c([N+](=O)[O-])c1`, the IC50 in [8] is 141 µM (active).
Turning to `NS(=O)(=O)c1ccc(CCNC(=O)COC(=O)CCc2c[nH]c3ccccc23)cc1`, the EC50 in [7] is 22 µM (active).
On the same count and under the same terms, as for `CSc1nnc(C)c(/C=C/Nc2ccc(C)cc2)n1`, the figure is 14.9 µM (active).
As for `Cc1ccc(/C=C2/C(=O)NC(=O)N(CCc3ccc(F)cc3)C2=O)s1`, the IC50 in “cells [9]” is 39.2 µM (active).
Turning to `O=C(NCCCN1CCOCC1)C1(c2ccccc2)CCCC1`, the EC50 in experiment [5] and in experiment [6] was > 112 µM (not active) each time.
Consider `O=C(NC1CCCCC1)N1CCC(c2nc(-c3ccc(S(=O)(=O)N4CCCC4)cc3)no2)CC1`, for which the EC50 in experiment [5] and in experiment [6] was > 112 µM (not active) throughout.
Regarding `Cc1ccc2nc(C)c3c(c2c1)COC3`, in the experiment “cells [9]”, the IC50 is > 50 µM (active).
As to `COc1ccc(NC2CCCN(C(=O)c3ccc4[nH]c(C)c(C)c4c3)C2)cc1` (stereo not drawn), the IC50 in experiment [8] is 81.4 µM (active).
As to `Cc1ccc(OC(C)C(=O)N2CC(=O)Nc3ccccc32)cc1` (stereo not drawn), the EC50 in “cells [1]” and in “cells [2]” was > 350 µM (not active) each time.
On to `Cc1cccc(Nc2c(-c3ccc(O)cc3)nc3ncccn23)c1`, for which the IC50 in [8] is 32.1 µM (active).
Consider `CCCS(=O)(=O)N1CCN(Cc2ccco2)CC1`, for which the IC50 in [8] is 130 µM (active).
`Clc1ccc(CNc2ccc3nnc(-c4ccccc4)n3n2)cc1`: the EC50 in experiment [5] and in [6] was > 112 µM (not active) each time.
As for `O=C(CCN1CCC(c2ccccc2)C1)c1ccccc1` (stereo not drawn), the IC50 in “cells [9]” was 31.7 µM (active).
Take `Cc1nnc2ccc(Oc3ccc(-c4ccccc4)cc3)nn12`: in the experiment on INS1, the AC50 is 6.58 µM (active). For the same molecule, the IC50 in experiment [8] is 99.4 µM (active).
